Experimental data reported in ChEMBL document CHEMBL1201862, “PubChem BioAssay data set” (2004).
The source made the active and inactive calls.

Columns and labels:
[1] = biological target: 26S proteasome non-ATPase regulatory subunit 14 (Homo sapiens, UniProt O00487); test: inhibition of proteasome subunit RPN11 – biochemical, fluorescence polarization, uHTS hits, confirmation (AID 602368); format: functional
[2] = biological target: 72 kDa type IV collagenase (Homo sapiens, UniProt P08253); test: Dose Response validation of uHTS RPN11 inhibitor hits using a MMP-2 Fluorescence assay.; format: functional
72 kDa type IV collagenase, sequence (P08253 whole entry): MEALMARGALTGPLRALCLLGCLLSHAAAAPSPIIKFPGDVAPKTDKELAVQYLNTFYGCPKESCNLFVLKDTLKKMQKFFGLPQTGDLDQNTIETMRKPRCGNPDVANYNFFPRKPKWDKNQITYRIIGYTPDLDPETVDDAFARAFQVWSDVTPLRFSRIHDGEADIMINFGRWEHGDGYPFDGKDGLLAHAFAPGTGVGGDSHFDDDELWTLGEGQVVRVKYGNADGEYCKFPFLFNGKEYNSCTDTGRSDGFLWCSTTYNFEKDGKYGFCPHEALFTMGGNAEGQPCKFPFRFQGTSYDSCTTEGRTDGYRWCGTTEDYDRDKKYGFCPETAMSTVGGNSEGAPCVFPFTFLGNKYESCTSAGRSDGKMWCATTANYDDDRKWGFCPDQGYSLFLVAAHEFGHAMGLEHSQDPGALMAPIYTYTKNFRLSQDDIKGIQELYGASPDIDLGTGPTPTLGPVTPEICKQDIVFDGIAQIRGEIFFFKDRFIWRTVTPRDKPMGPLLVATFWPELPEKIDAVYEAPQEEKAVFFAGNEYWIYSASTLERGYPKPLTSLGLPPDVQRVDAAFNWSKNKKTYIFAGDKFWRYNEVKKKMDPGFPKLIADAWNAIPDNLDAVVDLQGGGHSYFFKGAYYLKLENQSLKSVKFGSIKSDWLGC

Prothrombin = Prothrombin (Bos taurus, UniProt P00735); test: thrombin protease inhibitors – biochemical, fluorescence polarization, uHTS hits, dose response (AID 602369); format: functional
[3] = reduction of Shn3 3'UTR-driven luciferase in osteoblasts – cell-based, Clone20 osteoblasts, firefly luciferase, cherry-picked, dose response (AID 624132); format: functional;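 note: firefly luciferase luminescence from reporter carrying the Shn3 3'UTR in osteoblasts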
[4] = non-specific 3'UTR reporter inhibition in Clone20-Shn3RL – cell-based, Renilla luciferase, cherry-picked, counter-screen for Shn3 inhibitor project, dose response (AID 624133); format: functional
Protein Wnt-3a = Protein Wnt-3a (Mus musculus, UniProt P27467); test: antagonism of Wnt3a pathway luciferase reporter – Wnt-LIGHT cells, luminescence, selectivity assay for Gli-SUFU antagonist project, dose response (AID 651570); format: functional; details: read-out: IC50_Mean;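 note: Wnt-LIGHT reporter cells stimulated with conditioned medium from Wnt3a-producing cells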
Protein Wnt-3a, sequence (P27467 whole entry): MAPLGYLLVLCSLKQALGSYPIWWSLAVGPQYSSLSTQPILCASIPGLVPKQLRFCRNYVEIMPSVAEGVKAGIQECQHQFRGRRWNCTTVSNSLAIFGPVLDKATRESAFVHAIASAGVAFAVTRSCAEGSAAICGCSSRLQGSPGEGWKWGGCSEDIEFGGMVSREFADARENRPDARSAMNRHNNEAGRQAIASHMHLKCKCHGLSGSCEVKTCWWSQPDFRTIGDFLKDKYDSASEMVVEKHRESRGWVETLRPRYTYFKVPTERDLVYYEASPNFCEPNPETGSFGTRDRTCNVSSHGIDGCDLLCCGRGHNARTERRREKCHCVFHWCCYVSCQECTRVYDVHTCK

Caspase-3 = biological target: T1, Caspase-3 (Homo sapiens, UniProt P42574); format: functional;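 note: Dose-response selectivity test against caspase-3 for candidate inhibitors of sentrin-specific proteases (SENPs)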
T1 sequence (P42574 whole entry): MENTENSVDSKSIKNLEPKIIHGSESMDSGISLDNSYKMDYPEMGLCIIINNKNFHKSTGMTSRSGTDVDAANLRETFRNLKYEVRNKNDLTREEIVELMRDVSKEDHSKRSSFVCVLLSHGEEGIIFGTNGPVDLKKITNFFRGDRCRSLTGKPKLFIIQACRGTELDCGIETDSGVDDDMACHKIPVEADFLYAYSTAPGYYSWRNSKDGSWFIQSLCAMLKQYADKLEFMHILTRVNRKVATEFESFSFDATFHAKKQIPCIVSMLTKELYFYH

[5] = biological target: T2, Sentrin-specific protease 7 (Homo sapiens, UniProt Q9BQF6); format: functional;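 note: Luminescence-based dose-response confirmation of ultra-high-throughput screening hits, measuring inhibition of SENP7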
T2 sequence (Q9BQF6 whole entry): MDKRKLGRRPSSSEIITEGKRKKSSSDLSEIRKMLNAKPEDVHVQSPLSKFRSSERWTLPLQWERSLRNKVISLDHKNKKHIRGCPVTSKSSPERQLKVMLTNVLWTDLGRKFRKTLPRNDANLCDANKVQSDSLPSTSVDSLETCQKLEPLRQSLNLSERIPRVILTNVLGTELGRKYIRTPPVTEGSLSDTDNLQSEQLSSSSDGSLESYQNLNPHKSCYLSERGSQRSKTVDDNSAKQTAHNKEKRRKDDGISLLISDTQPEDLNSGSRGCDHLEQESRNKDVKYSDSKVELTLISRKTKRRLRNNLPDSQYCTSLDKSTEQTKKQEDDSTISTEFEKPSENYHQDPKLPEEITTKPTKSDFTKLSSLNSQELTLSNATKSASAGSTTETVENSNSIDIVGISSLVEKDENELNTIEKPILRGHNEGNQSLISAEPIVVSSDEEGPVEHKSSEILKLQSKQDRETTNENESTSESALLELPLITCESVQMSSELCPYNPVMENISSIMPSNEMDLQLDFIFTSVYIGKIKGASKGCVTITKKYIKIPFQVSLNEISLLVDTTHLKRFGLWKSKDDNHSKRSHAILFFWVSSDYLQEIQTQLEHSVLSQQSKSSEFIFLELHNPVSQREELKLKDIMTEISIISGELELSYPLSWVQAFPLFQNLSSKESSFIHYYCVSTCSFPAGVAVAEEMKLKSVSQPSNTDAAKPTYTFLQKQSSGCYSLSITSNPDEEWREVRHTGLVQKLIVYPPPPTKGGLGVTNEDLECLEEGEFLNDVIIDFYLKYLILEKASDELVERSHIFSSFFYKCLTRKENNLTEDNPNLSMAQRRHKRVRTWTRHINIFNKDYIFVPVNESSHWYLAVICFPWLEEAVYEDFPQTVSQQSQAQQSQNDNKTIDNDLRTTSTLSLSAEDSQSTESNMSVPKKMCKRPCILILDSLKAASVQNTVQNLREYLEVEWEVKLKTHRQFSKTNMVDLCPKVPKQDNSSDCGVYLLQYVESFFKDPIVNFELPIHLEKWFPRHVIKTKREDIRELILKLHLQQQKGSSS

[6] = biological target: T3, Sentrin-specific protease 6 (Homo sapiens, UniProt Q9GZR1); format: functional;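 note: Luminescence-based dose-response confirmatory assay of SENP6 inhibition, following up an ultra-high-throughput screen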
T3 sequence (Q9GZR1 whole entry): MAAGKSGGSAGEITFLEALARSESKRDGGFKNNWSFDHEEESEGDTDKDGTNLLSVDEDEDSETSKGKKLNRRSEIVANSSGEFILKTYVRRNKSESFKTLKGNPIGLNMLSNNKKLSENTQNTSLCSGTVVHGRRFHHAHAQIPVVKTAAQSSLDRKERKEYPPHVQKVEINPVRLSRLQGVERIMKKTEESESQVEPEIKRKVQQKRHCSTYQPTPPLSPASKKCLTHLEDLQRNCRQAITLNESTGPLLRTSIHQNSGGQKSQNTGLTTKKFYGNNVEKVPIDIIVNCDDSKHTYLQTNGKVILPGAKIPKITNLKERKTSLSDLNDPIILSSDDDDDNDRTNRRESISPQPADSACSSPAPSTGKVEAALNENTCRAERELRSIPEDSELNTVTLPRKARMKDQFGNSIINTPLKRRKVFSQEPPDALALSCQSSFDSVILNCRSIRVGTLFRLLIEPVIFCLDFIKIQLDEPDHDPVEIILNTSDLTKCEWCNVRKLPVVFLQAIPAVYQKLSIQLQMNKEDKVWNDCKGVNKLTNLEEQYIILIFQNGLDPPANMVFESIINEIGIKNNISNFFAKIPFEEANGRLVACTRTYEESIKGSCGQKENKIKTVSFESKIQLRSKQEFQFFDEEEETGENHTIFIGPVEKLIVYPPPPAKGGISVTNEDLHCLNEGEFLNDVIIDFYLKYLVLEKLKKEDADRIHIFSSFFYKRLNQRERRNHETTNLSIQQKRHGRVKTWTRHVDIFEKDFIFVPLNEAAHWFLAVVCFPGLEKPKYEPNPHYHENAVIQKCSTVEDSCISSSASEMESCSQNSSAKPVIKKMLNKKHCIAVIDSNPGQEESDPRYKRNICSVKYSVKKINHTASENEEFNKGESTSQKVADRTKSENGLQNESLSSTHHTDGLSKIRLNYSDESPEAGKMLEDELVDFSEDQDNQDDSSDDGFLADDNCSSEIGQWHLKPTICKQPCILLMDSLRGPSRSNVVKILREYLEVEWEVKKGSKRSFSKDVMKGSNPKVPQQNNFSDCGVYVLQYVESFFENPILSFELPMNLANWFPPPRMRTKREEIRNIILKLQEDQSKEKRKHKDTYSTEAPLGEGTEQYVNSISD

[7] = biological target: T4, Sentrin-specific protease 8 (Homo sapiens, UniProt Q96LD8); format: functional;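 note: luminescence read-out of SENP8 inhibition, dose-response confirmation following an ultra-high-throughput screen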
T4 sequence (Q96LD8 whole entry): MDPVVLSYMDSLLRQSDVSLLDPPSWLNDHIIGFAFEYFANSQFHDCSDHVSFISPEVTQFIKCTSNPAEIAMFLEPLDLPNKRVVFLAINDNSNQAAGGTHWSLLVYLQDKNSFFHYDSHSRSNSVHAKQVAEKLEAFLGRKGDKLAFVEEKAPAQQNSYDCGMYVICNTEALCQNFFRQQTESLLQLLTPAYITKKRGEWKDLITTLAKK

[8] = biological target: Induced myeloid leukemia cell differentiation protein Mcl-1 (Homo sapiens, UniProt Q07820); format: functional
Induced myeloid leukemia cell differentiation protein Mcl-1, sequence (Q07820 whole entry): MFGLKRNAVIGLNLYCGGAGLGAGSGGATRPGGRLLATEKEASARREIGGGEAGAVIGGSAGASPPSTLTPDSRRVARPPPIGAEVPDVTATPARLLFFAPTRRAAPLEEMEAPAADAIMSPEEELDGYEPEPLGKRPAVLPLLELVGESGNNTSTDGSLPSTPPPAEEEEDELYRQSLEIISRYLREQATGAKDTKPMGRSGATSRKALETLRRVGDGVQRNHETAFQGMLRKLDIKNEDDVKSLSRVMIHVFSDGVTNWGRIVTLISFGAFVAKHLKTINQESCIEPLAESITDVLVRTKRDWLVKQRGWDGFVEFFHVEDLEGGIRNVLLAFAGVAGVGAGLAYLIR

[9] = biological target: T5, Probable nicotinate-nucleotide adenylyltransferase (Staphylococcus aureus (strain N315), UniProt P65502); format: functional, Staphylococcus aureus subsp. aureus N315;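 for IC50 Mean: confirmatory dose-response retesting of NadD inhibitor hits first found in an ultra-high-throughput screen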
T5 sequence (P65502 whole entry): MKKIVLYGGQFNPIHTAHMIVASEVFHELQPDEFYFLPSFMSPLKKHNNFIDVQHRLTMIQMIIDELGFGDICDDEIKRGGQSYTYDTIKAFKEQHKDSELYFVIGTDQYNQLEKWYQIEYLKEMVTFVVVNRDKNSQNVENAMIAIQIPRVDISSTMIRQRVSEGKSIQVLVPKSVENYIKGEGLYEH

[10] = biological target: T5, Probable nicotinate-nucleotide adenylyltransferase; format: functional, Staphylococcus aureus subsp. aureus N315; details: read-out: IC50_Mean
Beta-lactamase [11] = biological target: Beta-lactamase (Salmonella choleraesuis (strain SC-B67), UniProt Q5J463); test: Epi-absorbance-based counterscreen for selective VIM-2 inhibitors: dose response biochemical high throughput screening assay to identify inhibitors of TEM-1 serine-beta-lactamase.
Beta-lactamase (Salmonella choleraesuis (strain SC-B67), UniProt Q5J463), sequence (Q5J463 whole entry): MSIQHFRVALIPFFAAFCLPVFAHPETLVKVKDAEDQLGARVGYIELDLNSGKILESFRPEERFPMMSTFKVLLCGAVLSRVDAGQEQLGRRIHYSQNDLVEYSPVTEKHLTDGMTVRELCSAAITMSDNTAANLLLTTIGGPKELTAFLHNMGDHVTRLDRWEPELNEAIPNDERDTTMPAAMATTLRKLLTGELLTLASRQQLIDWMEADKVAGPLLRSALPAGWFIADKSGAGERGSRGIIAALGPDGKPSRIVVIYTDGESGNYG

Beta-lactamase [12] = biological target: T6, Beta-lactamase (Pseudomonas aeruginosa, UniProt Q79MP6); test: inhibition of IMP-1 beta-lactamase activity – biochemical, epi-absorbance, selectivity assay for VIM-2 inhibitor project, dose response (AID 1920)
T6 sequence (Q79MP6 whole entry): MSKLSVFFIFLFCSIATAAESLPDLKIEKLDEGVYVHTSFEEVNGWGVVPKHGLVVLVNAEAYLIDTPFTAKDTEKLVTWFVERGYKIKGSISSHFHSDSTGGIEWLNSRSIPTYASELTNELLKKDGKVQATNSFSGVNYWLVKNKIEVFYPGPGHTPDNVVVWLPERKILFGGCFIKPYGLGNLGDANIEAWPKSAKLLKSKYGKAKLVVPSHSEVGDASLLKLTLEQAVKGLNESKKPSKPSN

Beta-lactamase [13] = biological target: T6, Beta-lactamase; test: […] counterscreen for selective VIM-2 inhibitors: dose response biochemical high throughput screening assay to identify inhibitors of IMP-1 metallo-beta-lactamase.
Cytochrome P450 2C19 = Cytochrome P450 2C19 (Homo sapiens, UniProt P33261); test: Cytochrome panel assay with activity outcomes. Panel member name: p450-cyp2c19 Compounds with AC50 equal or less than 10 uM are considered active; format: functional; details: read-out: AC50
Cytochrome P450 2C19, sequence (P33261 whole entry): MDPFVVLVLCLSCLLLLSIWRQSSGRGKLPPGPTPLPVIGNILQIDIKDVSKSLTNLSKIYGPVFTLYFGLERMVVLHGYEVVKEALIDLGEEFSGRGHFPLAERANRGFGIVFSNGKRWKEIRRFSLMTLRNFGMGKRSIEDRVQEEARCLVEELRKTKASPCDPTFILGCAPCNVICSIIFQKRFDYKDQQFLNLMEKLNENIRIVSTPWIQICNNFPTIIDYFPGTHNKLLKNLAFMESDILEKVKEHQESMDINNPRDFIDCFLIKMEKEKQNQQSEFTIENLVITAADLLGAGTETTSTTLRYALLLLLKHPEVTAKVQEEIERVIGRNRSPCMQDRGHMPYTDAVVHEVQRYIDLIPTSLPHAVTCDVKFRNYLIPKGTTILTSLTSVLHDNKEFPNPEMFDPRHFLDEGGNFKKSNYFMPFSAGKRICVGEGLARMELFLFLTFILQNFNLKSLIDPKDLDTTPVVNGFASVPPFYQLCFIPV

Cytochrome P450 3A4 = Cytochrome P450 3A4 (Homo sapiens, UniProt P08684);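 note: CYP3A4 tested as one member of a cytochrome P450 panel screen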
Cytochrome P450 3A4, sequence (P08684 whole entry): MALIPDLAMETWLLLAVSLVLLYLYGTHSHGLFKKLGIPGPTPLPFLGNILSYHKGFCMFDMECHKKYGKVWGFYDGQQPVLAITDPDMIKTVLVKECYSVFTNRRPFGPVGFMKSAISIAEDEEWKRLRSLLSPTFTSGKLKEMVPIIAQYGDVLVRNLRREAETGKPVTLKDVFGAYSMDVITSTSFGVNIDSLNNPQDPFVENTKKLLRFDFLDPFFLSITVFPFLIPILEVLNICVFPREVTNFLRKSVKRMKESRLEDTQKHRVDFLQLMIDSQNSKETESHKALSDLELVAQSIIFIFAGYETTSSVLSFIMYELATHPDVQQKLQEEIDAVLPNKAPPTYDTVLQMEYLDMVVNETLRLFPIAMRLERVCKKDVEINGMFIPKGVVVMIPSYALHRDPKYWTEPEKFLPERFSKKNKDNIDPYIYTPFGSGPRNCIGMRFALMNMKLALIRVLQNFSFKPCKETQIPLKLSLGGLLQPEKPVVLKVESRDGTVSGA

Cytochrome P450 2C9 = Cytochrome P450 2C9 (Homo sapiens, UniProt P11712)
Cytochrome P450 2C9, sequence (P11712 whole entry): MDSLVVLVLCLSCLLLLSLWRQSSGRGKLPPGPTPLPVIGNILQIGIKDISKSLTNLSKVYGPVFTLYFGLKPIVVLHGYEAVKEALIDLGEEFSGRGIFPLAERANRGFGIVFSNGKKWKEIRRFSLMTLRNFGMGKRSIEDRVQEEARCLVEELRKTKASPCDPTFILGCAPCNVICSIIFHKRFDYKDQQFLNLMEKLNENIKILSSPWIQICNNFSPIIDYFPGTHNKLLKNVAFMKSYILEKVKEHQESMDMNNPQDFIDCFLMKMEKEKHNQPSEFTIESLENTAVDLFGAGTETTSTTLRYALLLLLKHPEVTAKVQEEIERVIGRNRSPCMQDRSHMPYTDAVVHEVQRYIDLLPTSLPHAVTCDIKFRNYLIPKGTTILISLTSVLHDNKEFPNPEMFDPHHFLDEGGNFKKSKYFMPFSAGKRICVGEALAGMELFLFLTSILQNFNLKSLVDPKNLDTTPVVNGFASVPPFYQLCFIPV

[14] = viability of uninfected HEp-2 cells – cell-based, HTS, cytotoxicity control for RSV inhibitor project, dose response (AID 2410); format: functional; details: human respiratory syncytial virus
[15] = biological target: Protein-tyrosine kinase 2-beta (Homo sapiens, UniProt Q14289);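 note: potency of inhibitors of PYK2 kinase phosphorylation of poly-GT substrate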
Protein-tyrosine kinase 2-beta, sequence (Q14289 whole entry): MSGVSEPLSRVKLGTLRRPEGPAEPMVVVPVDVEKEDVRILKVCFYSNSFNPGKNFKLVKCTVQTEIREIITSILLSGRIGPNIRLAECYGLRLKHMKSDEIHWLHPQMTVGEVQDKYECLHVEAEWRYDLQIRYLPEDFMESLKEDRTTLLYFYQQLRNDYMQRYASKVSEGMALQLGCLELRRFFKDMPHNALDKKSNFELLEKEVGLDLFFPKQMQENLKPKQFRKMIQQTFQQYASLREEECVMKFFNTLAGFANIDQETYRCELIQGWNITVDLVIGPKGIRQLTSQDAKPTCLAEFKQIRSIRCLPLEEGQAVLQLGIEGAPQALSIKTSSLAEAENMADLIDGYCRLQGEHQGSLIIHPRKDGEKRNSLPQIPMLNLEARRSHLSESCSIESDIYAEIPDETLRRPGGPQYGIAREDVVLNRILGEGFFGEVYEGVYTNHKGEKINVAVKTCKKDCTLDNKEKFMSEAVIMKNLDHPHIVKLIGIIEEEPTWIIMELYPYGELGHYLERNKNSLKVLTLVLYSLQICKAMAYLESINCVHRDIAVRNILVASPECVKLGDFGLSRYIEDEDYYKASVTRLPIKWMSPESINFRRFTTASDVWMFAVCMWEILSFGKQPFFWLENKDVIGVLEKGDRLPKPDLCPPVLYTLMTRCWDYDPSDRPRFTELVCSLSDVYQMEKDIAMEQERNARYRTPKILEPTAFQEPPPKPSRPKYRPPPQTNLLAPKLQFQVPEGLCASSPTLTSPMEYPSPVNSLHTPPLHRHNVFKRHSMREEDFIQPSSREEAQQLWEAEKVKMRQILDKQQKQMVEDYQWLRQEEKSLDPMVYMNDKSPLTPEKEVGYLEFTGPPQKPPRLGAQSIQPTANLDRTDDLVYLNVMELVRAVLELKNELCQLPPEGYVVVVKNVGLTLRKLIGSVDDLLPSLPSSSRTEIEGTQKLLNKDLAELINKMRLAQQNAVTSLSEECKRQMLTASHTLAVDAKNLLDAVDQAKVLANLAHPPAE

[16] = biological target: T7, Adenosylmethionine-8-amino-7-oxononanoate aminotransferase (Mycobacterium tuberculosis, UniProt P9WQ81); test: Mycobacterium tuberculosis BioA enzyme inhibitor Measured in Biochemical System Using Plate Reader - 2163-02_Inhibitor_Dose_CherryPick_Activity.; format: functional, Mycobacterium tuberculosis UT205
T7 sequence (P9WQ81 whole entry): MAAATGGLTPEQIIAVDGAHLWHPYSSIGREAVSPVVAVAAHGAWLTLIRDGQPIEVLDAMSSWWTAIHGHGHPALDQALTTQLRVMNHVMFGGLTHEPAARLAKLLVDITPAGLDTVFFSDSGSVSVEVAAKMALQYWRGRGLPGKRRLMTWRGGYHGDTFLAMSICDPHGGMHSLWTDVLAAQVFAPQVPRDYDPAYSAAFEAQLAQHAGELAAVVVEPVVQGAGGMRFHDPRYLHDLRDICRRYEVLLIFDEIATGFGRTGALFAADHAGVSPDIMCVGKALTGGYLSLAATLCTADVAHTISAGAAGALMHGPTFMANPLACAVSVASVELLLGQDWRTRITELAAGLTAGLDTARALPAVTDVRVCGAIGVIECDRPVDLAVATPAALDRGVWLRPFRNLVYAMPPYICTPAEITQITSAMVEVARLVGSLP

[17] = loss of viability in HepG2 cells – cell-based, CellTiter-Glo, cherry-picked, cytotoxicity control for Shn3 inhibitor project, dose response (AID 624134); format: functional

26S proteasome non-ATPase regulatory subunit 14, sequence (O00487 whole entry): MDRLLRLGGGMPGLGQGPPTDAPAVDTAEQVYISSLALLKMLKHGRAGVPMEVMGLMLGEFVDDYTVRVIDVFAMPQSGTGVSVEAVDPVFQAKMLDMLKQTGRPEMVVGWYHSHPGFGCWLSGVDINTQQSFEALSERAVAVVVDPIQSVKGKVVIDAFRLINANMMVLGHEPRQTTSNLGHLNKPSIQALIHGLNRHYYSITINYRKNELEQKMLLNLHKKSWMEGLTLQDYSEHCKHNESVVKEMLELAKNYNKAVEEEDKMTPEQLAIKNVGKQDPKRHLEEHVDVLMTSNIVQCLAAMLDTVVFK

With `CC1=CC2=NC(=O)/C(=C\c3c(C)[nH]c4ccc(C)cc34)C(=N)N2O1` the IC50 [1] was 33.3 µM (active), the IC50 [2] was > 100 µM (inactive) and the IC50 (Prothrombin) was 32.1 µM (active).

With `C=CCOc1nc2c(c(=O)n(C)c(=O)n2C)n1Cc1ccc(Cl)cc1Cl` the AC50 [3] was 2.15 µM (active), the AC50 [4] was 7.4 µM (active) and the IC50 (Protein Wnt-3a) was 29.7 µM (inactive).

With `CCOC(=O)c1ccc(NC(=O)c2cc3ccccc3o2)cc1` the IC50 (Caspase-3) was 23.7 µM (active), the IC50 [5] was 5.71 µM (active) and the IC50 [6] was 7.74 µM (active). The IC50 [7] was > 100 µM (inactive).

For `COc1ccc(C2=NN(c3nc(-c4ccccc4)c(CC(=O)O)s3)C(c3ccco3)C2)cc1` (centres undefined), the IC50 [8] was 6.5 µM (active), the IC50 [9] was 8.39 µM (active) and the IC50 [10] was 18.5 µM (active).

In the case of `CSC[C@H](NC(=O)COc1cc2c(c3oc(=O)c(C)c(C)c13)CCC(C)(C)O2)C(=O)O`, the IC50 (Beta-lactamase [11]) is reported as > 59.6 µM (inactive), the IC50 (Beta-lactamase [12]) is reported as > 59.6 µM (inactive) and the IC50 (Beta-lactamase [13]) is reported as > 59.6 µM (inactive).

With `Cc1cc(/C=C2\SC(=S)NC2=O)c(C)n1C` the AC50 (Cytochrome P450 2C19) was 39.8 µM (inconclusive), the IC50 [1] was 16.5 µM (active) and the IC50 [2] was 15.2 µM (active). The IC50 (Prothrombin) was 19.4 µM (active), the AC50 (Cytochrome P450 3A4) was 25.1 µM (inconclusive) and the AC50 (Cytochrome P450 2C9) was 1.26 µM (inconclusive).

With `CCOC(=O)c1c(NC(=O)COc2ncnc3ccccc23)sc(C(C)=O)c1C` the IC50 (Protein Wnt-3a) was 6.86 µM (active).

With `Cc1ccc([N+](=O)[O-])cc1S(=O)(=O)Nc1cccc(-c2ccc(N3CCCC3)nn2)c1` the CC50 [14] was 23 µM (active), the IC50 [9] was 17.7 µM (active) and the IC50 [10] was 39.2 µM (active).

For `C=C(c1cccc2ccccc12)P(=O)(O)O`, the IC50 (Beta-lactamase [11]) was > 59.6 µM (inactive), the IC50 (Beta-lactamase [12]) was > 59.6 µM (inactive) and the IC50 (Beta-lactamase [13]) was > 59.6 µM (inactive). The IC50 [15] was 27 µM (not active).

In the case of `S=c1[nH]nc(-c2ccccc2)n1CC1CCCO1` (centres undefined), the IC50 (Beta-lactamase [11]) is reported as > 59.6 µM (inactive), the IC50 (Beta-lactamase [12]) is reported as > 59.6 µM (inactive) and the IC50 (Beta-lactamase [13]) is reported as > 59.6 µM (inactive).

With `Cc1ccc(NC(=O)C(C)SCc2nc(O)c3c4c(sc3n2)CCCC4)nc1` (centres undefined) the IC50 [1] was 21.9 µM (active), the IC50 [2] was > 100 µM (inactive) and the IC50 (Prothrombin) was 17.2 µM (active).

In the case of `O=C(c1ccc2c(=O)n(Cc3ccco3)c(=S)[nH]c2c1)N1CCN(Cc2ccccc2)CC1`, the IC50 [9] is reported as 23.5 µM (active) and the IC50 [10] is reported as 57.7 µM (active).

With `Cc1cccc(C(=O)NC2CCN(CC(=O)Nc3ccccc3Cl)CC2)c1` the AC50 [16] was 1.04 µM (active).

With `O=C(C[C@@H]1C[C@@H]2c3cc(NC(=O)c4cccnc4)ccc3O[C@@H]2[C@@H](CO)O1)NCc1cccc(F)c1` the AC50 [16] was 5.98 µM (active).

With `O=C(Nc1ccc2c(c1)[C@H]1C[C@@H](CC(=O)N3CCc4ccccc4C3)O[C@H](CO)[C@H]1O2)c1cccnc1` the AC50 [16] was 6.24 µM (active).

For `CCc1nc(N)nc(N)c1-c1ccc(N(C)Cc2ccccc2)c([N+](=O)[O-])c1`, the AC50 [3] was < 0.26 µM (active), the AC50 [17] was < 0.26 µM (active) and the IC50 (Protein Wnt-3a) was 5.28 µM (active).
